Assay results reported in patent publication US8192962B2, “Processes for detecting toxic substances” (Daikin Industries, Ltd., priority 2001, dated 2012).

Test system: Energy system protein genes
Assay: DNA chip mRNA expression in yeast, energy system protein genes (Table 4)
Format: cell-based, Saccharomyces cerevisiae S288C
Procedure: Yeast (Saccharomyces cerevisiae S288C (α SUC2mal mel gap2 CUP1)) were incubated at 25° C. on YPD medium (yeast extract 1%, polypepton 2%, glucose 2%). One of toxic chemical substances was added to the cells at logarithmic growth phase, and the cells were further incubated for two hours. Cells were cultured without any chemical substance in the same condition, and were used as control. Concentrations of the chemical substances were defined to inhibit the growth of the yeast but not lead to death.
After completion of the incubation, the culture was centrifuged to collect the cells. To the cells, sodium acetate buffer (50 mM sodium acetate, 10 mM EDTA, 1% SDS) was added, and the mixture was shaken at 65° C. for five minutes, followed by returning to room temperature, and obtaining the supernatant, of which the procedures were repeated two times. To the supernatant, ½ amount of a solution of phenol/chloroform was added, and the mixture was centrifuged to give a supernatant, which was added with an equal amount of chloroform, and the mixture was centrifuged to give a supernatant. To the supernatant, an equal amount of isopropanol containing 0.3 M sodium acetate was added, and the mixture was allowed to stand at room temperature for 30 minutes, after which the mixture was centrifuged to give a sediment of the whole RNAs. Seventy % ethanol was added to the sediment, and the mixture was again centrifuged to give a sediment, which was then dried and dissolved in water. mRNA was isolated from the whole RNAs as followings. In view of the fact that a poly A chain is attached to the 3′ terminus of mRNA, a polynucleotide having a poly T structure which was immobilized on the surface of latex beads was used to trap the mRNA, and then the mRNA was washed and eluted with spine column (Oligotex-dT30<Super>mRNA Purification Kit, Takara). Reverse transcription of the mRNA was conducted with a reverse transcriptase (Super Script II Reverse Transcriptase; catalogue No. 18064-014, GibcoBRL) using fluorescence-labeled nucleotides to give cDNAs that were introduced with Cy3-dUTP or Cy5-dUTP during the reverse transcription.
The labeled cDNAs were dissolved in TE buffer (10mM Tris-HCl/1 mM EDTA, pH8.0), and the solution was dropped on the DNA chip containing the whole genes of yeast (DNA Chip Research Inc. Japan) so that the cDNAs were hybridized on the DNA chip at 65° C. for over 12 hours. The fluoresces intensity of the DNA chip was read with a scanner, and the ratio relative to the fluorescence intensity resulting from the absence of chemical substance was estimated as the following, which is shown in Tables 1 to 9: […]

Measured: The level of expressed mRNA in the presence of chemical substance/The level of expressed mRNA in the absence of chemical substance

CCCCC[C@H](O)CC(=O)CCc1ccc(O)c(OC)c1 [(13), gingerol]
3.0: yeast gene YFR053C
1.8: yeast gene YAL038W | yeast gene YAL054C | yeast gene YHL008C | yeast gene YKL150W | yeast gene YOR347C | yeast gene YPR006C
1.1: yeast gene YGL191W, cells incubated two hours with the chemical substance | yeast gene YGR112W, cells incubated two hours with the chemical substance | yeast gene YJL216C, cells incubated two hours with the chemical substance | yeast gene YOR388C, cells incubated two hours with the chemical substance | yeast gene YPL061W, cells incubated two hours with the chemical substance
1.6: yeast gene YBL058W, cells incubated two hours with the chemical substance | yeast gene YEL047C, cells incubated two hours with the chemical substance | yeast gene YEL071W, cells incubated two hours with the chemical substance | yeast gene YJL045W, cells incubated two hours with the chemical substance | yeast gene YMR261C, cells incubated two hours with the chemical substance | yeast gene YPL031C, cells incubated two hours with the chemical substance
2.5: yeast gene YFR015C | yeast gene YNL071W
3.3: yeast gene YMR105C
0.4: yeast gene YDR380W | yeast gene YJR048W
2.8: yeast gene YDR001C | yeast gene YML054C
4.0: yeast gene YCR107W
1.5: yeast gene YCR046C, cells incubated two hours with the chemical substance | yeast gene YEL011W | yeast gene YGL253W | yeast gene YGR062C, cells incubated two hours with the chemical substance, 25° C., YPD medium | yeast gene YKL085W, cells incubated two hours with the chemical substance | yeast gene YML087C | yeast gene YOR136W
1.0: yeast gene YBR185C, cells incubated two hours with the chemical substance | yeast gene YDL078C, cells incubated two hours with the chemical substance | yeast gene YGL205W, cells incubated two hours with the chemical substance | yeast gene YGR207C | yeast gene YIR031C, cells incubated two hours with the chemical substance | yeast gene YJR121W, cells incubated two hours with the chemical substance | yeast gene YLL041C, cells incubated two hours with the chemical substance | yeast gene YLR164W, cells incubated two hours with the chemical substance | yeast gene YLR354C, cells incubated two hours with the chemical substance | yeast gene YML129C, cells incubated two hours with the chemical substance | yeast gene YOR178C, cells incubated two hours with the chemical substance | yeast gene YOR221C | yeast gene YPL275W, cells incubated two hours with the chemical substance
2.1: yeast gene YBR126C
2.2: yeast gene YAL060W | yeast gene YML125C
1.7: yeast gene YIL111W | yeast gene YLR273C
3.8: yeast gene YML100W
3.2: yeast gene YNL237W
2.4: yeast gene YDR231C | yeast gene YER178W | yeast gene YPL171C
3.4: yeast gene YGR008C | yeast gene YGR192C
2.3: yeast gene YIL160C | yeast gene YMR089C | yeast gene YPR026W
3.7: yeast gene YOL165C
0.6: yeast gene YDL067C, cells incubated two hours with the chemical substance | yeast gene YEL024W, cells incubated two hours with the chemical substance | yeast gene YPR048W, cells incubated two hours with the chemical substance
2.9: yeast gene YPL240C
1.4: yeast gene YBR196C | yeast gene YOL157C
0.7: yeast gene YBR299W | yeast gene YCR005C | yeast gene YDR377W, cells incubated two hours with the chemical substance | yeast gene YDR529C, cells incubated two hours with the chemical substance | yeast gene YGL134W | yeast gene YGL187C, cells incubated two hours with the chemical substance | yeast gene YJL121C, cells incubated two hours with the chemical substance | yeast gene YKR058W, cells incubated two hours with the chemical substance, 25° C., YPD medium | yeast gene YMR267W, cells incubated two hours with the chemical substance, 25° C., YPD medium
1.2: yeast gene YDL107W, cells incubated two hours with the chemical substance | yeast gene YDR298C, cells incubated two hours with the chemical substance | yeast gene YEL020C | yeast gene YKL060C, cells incubated two hours with the chemical substance | yeast gene YML120C, cells incubated two hours with the chemical substance | yeast gene YMR073C, cells incubated two hours with the chemical substance | yeast gene YPL271W
2.6: yeast gene YGR244C | yeast gene YHR179W | yeast gene YOL126C
2.0: yeast gene YBR145W | yeast gene YIL045W | yeast gene YIL172C | yeast gene YKL035W
1.3: yeast gene YMR205C, cells incubated two hours with the chemical substance
1.9: yeast gene YNL037C
3.1: yeast gene YGR254W | yeast gene YNL331C
5.9: yeast gene YDL174C
